Key:
p300 = biological target: T1, p300 (Homo sapiens, UniProt Q09472); assay: P300 degradation, HiBit technology in A549 P300 HiBit cells (2 h); assay type: cell-based; settings: 2 hrs post treatment; for Dmax: A549, A549 P300 HiBit cells; for DC50: A549 P300 HiBit cells
T1 construct: host or cells: A549 P300 HiBit cells
How it was run: (§1)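 Luminescence after lytic HiBiT detection (10 min, room temperature) gave degradation potency and Dmax. Before that, knock-in A549 cells grown overnight in F-12K/10% HI-FBS were exposed to serially diluted compound at 37 °C, 5% CO2 for the assay time stated.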

CBP = biological target: T2, CBP (Homo sapiens, UniProt Q92793); assay: CBP degradation, HiBit technology in A549 CBP HiBit cells (24 h); assay type: cell-based; settings: 24 hrs post treatment
T2 construct: host or cells: A549 CBP HiBit cells
T2 sequence (Q92793 whole entry): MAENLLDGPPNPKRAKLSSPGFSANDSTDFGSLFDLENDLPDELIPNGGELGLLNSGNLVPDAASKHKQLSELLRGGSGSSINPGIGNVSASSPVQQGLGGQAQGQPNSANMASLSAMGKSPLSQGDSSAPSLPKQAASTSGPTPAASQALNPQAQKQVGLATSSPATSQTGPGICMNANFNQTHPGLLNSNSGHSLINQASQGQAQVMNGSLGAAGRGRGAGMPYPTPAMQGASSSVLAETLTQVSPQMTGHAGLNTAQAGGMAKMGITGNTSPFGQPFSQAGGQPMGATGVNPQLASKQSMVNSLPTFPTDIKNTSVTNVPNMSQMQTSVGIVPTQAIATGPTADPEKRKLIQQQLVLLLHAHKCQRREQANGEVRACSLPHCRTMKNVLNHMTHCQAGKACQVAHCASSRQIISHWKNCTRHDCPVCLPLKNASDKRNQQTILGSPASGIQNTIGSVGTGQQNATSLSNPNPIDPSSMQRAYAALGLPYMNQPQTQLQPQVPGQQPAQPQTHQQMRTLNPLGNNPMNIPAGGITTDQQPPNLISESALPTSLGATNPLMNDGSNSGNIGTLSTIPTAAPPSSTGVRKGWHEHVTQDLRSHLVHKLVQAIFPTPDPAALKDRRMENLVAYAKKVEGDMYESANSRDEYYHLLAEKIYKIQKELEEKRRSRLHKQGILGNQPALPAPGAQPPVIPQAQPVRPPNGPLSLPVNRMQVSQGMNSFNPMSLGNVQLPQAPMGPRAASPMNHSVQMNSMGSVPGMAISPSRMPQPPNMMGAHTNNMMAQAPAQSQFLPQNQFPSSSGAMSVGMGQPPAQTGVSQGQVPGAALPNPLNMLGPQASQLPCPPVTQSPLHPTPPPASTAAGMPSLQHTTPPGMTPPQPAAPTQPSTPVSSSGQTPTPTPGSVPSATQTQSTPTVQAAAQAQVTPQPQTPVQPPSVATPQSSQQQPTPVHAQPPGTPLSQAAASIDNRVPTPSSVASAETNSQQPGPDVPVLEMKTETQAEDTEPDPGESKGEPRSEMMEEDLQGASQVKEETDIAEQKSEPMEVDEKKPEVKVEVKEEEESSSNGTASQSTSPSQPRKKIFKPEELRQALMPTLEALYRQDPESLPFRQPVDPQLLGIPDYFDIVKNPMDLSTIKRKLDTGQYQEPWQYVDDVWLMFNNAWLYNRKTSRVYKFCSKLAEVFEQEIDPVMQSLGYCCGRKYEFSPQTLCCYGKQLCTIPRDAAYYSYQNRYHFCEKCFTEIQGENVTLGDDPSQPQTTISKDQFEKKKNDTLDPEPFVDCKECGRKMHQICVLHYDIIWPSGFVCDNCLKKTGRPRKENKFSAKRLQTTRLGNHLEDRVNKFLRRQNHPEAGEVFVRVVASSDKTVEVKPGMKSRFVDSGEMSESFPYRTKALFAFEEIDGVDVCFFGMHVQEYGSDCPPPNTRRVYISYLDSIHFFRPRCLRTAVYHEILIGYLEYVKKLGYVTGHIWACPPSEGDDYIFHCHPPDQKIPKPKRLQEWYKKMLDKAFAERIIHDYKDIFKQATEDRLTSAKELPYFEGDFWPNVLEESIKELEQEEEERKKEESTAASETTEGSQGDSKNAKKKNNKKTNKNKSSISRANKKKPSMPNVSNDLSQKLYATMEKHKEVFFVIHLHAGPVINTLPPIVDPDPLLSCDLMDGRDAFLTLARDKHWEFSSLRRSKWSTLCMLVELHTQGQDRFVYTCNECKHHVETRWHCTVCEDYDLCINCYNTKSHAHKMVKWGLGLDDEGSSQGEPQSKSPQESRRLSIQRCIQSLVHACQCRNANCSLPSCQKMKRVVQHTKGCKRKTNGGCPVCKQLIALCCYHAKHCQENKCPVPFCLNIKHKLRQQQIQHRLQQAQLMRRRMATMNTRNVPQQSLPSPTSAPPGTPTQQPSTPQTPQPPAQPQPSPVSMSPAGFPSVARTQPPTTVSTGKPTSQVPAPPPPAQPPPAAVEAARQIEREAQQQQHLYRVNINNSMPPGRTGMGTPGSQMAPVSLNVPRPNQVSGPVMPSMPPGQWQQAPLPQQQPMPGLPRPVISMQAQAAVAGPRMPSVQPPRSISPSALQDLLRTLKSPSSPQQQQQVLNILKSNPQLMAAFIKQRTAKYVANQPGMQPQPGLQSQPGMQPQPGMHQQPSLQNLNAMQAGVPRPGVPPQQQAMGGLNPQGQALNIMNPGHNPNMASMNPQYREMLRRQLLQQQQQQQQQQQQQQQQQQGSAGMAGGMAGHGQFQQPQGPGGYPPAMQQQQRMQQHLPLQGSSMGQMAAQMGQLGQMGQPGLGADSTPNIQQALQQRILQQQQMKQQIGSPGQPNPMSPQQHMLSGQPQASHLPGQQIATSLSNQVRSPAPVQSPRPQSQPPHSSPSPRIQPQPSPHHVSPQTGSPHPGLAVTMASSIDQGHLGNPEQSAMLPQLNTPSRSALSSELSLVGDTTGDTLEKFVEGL
How it was run: as §1

T1 sequence (Q09472 whole entry): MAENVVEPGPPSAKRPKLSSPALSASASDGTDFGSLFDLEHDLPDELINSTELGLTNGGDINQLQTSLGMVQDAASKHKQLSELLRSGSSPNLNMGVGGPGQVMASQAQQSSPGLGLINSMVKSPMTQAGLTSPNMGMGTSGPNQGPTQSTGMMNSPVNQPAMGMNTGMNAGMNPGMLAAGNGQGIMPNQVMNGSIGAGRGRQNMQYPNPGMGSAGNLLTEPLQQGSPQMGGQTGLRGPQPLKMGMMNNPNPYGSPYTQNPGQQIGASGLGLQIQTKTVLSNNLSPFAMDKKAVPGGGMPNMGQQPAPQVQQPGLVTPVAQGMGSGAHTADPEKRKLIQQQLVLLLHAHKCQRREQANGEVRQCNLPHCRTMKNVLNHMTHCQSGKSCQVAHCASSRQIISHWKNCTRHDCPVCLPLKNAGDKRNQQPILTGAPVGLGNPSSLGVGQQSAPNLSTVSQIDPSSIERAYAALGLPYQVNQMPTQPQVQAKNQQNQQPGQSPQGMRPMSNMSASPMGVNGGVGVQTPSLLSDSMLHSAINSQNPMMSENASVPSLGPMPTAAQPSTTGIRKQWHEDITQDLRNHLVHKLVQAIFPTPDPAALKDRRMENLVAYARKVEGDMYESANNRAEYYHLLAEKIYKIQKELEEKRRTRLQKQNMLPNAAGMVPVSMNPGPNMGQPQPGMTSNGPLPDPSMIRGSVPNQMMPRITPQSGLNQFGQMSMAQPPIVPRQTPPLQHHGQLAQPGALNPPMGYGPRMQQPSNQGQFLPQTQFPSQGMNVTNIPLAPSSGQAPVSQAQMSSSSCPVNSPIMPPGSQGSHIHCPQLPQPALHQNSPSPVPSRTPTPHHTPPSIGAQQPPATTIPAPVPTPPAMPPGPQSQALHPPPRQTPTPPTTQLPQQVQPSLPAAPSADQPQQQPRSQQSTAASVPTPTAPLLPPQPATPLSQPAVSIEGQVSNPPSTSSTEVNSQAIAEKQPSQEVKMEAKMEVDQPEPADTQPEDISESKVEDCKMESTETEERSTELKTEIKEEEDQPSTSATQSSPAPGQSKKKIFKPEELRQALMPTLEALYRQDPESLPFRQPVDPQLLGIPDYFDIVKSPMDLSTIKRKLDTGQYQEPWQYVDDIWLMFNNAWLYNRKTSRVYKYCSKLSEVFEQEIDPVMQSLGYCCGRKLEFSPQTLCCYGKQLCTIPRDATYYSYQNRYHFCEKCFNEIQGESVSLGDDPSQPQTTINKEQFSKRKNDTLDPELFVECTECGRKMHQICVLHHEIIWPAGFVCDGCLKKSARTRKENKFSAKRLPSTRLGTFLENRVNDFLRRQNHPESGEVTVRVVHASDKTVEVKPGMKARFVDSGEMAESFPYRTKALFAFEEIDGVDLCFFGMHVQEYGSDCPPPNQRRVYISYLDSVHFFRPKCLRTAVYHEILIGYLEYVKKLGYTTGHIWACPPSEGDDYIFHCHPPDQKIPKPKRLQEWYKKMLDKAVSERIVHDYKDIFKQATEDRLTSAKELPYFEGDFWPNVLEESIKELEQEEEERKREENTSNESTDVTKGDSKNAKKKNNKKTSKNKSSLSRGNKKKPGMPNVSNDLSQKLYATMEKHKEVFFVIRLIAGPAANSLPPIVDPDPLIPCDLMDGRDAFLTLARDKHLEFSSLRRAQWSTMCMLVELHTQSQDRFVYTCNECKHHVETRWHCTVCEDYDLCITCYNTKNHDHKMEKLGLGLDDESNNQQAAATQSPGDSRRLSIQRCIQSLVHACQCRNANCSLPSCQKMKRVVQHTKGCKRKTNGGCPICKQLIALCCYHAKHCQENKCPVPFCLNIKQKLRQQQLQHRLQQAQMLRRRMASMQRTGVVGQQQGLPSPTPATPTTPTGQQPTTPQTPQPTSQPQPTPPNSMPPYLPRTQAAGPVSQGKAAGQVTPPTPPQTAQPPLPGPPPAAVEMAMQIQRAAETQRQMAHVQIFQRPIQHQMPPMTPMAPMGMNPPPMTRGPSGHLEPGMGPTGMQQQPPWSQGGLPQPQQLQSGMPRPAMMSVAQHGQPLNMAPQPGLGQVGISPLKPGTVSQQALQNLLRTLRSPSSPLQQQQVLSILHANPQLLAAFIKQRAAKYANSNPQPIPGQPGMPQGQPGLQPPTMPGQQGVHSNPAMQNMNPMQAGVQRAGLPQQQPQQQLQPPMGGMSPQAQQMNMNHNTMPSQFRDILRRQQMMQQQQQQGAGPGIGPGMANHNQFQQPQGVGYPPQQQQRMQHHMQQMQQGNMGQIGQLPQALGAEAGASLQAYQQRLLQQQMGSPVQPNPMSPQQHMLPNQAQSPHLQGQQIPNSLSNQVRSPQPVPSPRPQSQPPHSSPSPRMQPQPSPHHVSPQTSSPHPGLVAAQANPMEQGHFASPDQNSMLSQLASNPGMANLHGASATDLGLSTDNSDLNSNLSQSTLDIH

SMILES	Dmax (p300) [%]	DC50 (p300) [nM]	DC50 (CBP) [nM]	Dmax (CBP) [%]
Cc1cc(-c2ncc3c(n2)CCCN3c2cc(C3CCOCC3)cc3c2cc(C)c(=O)n3C)cnc1C(=O)NCC#Cc1cc2c(C3CCC(=O)NC3=O)cccc2o1 (stereo not shown) [Example B141, 5-(5-(1,3-dimethyl-2-oxo-7-(tetrahydro-2H-pyran-4-yl)-1,2-dihydroquinolin-5-yl)-5,6,7,8-tetrahydropyrido[3,2-d]pyrimidin-2-yl)-N-(3-(4-(2,6-dioxopiperidin-3-yl)benzofuran-2-yl)prop-2-yn-1-yl)-3-methylpicolinamide]	> 80	< 1	10 to 99	20 to 39
Cc1cc(-c2cc3cccc(-c4cc5c(c(N6CC7CCC(C6)O7)n4)n(C)c(=O)n5C)c3cn2)cnc1C(=O)NCC#Cc1ccc2occ(C3CCC(=O)NC3=O)c2c1 (stereo not shown) [Example A69, 5-(8-(4-(8-oxa-3-azabicyclo [3.2.1]octan-3-yl)-1,3-dimethyl-2-oxo-2,3-dihydro-1H-imidazo[4,5-c]pyridin-6-yl)isoquinolin-3-yl)-N-(3-(3-(2,6-dioxo-piperidin-3-yl)benzofuran-5-yl)prop-2-yn-1-yl)-3-methylpicolinamide]	> 80	1 to 9.9	> 1000	< 20
Cc1cc2c(N3CCCc4nc(-c5ccc(C(=O)NCC#Cc6cc7c([C@@H]8CCC(=O)NC8=O)cccc7o6)nc5)ncc43)cc(C3CCOCC3)cc2n(C)c1=O [Example B39, (S)-5-(5-(1,3-dimethyl-2-oxo-7-(tetrahydro-2H-pyran-4-yl)-1,2-dihydroquinolin-5-yl)-5,6,7,8-tetrahydropyrido[3,2-d]pyrimidin-2-yl)-N-(3-(4-(2,6-dioxopiperidin-3-yl)benzofuran-2-yl)prop-2-yn-1-yl)picolinamide]	> 80	1 to 9.9	> 1000	< 20
Cc1cc(-c2cc3cccc(-c4ccc5c(c4)n(C)c(=O)n5C)c3cn2)cnc1C(=O)NCC#Cc1cc2c([C@H]3CCC(=O)NC3=O)cccc2o1 [Example A181, (R)-5-(8-(1,3-dimethyl-2-oxo-2,3-dihydro-1H-benzo [d]imidazol-5-yl)isoquinolin-3-yl)-N-(3-(4-(2,6-dioxopiperidin-3-yl)benzofuran-2-yl)prop-2-yn-1-yl)-3-methylpicolinamide]	> 80	1 to 9.9	100 to 999	< 20
CCc1cc(-c2cccc3cc(-c4ccc(C(=O)NCC#Cc5ccc6ncn(C7CCC(=O)NC7=O)c6c5)nc4)ncc23)c2cc(C)c(=O)n(C)c2c1 (stereo not shown) [Example B2, N-(3-(1-(2,6-Dioxopiperidin-3-yl)-1H-benzo[d]imidazol-6-yl)prop-2-yn-1-yl)-5-(8-(7-ethyl-1,3-dimethyl-2-oxo-1,2-dihydroquinolin-5-yl)isoquinolin-3-yl)picolinamide]	60 to 79	1 to 9.9	> 1000	< 20
Cc1cc(-c2ncc3c(n2)CCCN3c2cc(C3CCOCC3)nc3c2cc(C)c(=O)n3C)cnc1C(=O)NCC#Cc1cc2c(C3CCC(=O)NC3=O)cccc2o1 (stereo not shown) [Example B103, 5-(5-(6,8-dimethyl-7-oxo-2-(tetrahydro-2H-pyran-4-yl)-7,8-dihydro-1,8-naphthyridin-4-yl)-5,6,7,8-tetrahydropyrido[3,2-d]pyrimidin-2-yl)-N-(3-(4-(2,6-dioxopiperidin-3-yl)benzofuran-2-yl)prop-2-yn-1-yl)-3-methylpicolinamide]	> 80	1 to 9.9	100 to 999	< 20
Cc1ccc(-c2ccc3c(c2)n(C)c(=O)n3C)c2cnc(-c3ccc(C(=O)NCC#Cc4ccc5occ(C6CCC(=O)NC6=O)c5c4)nc3)cc12 (stereo not shown) [Example A72, 5-(8-(1,3-dimethyl-2-oxo-2,3-dihydro-1H-benzo[d]imidazol-5-yl)-5-methylisoquinolin-3-yl)-N-(3-(3-(2,6-dioxopiperidin-3-yl)benzofuran-5-yl)prop-2-yn-1-yl)picolinamide]	> 80	1 to 9.9	> 1000	< 20
Cn1c(=O)n(C)c2c(F)cc(-c3cccc4cc(-c5ccc(C(=O)NCC#Cc6ccc7occ(C8CCC(=O)NC8=O)c7c6)nc5)ncc34)cc21 (stereo not shown) [Example A64, N-(3-(3-(2,6-dioxopiperidin-3-yl)benzofuran-5-yl)prop-2-yn-1-yl)-5-(8-(7-fluoro-1,3-dimethyl-2-oxo-2,3-dihydro-1H-benzo[d]imidazol-5-yl)isoquinolin-3-yl)picolinamide]	> 80	1 to 9.9	> 1000	< 20
[2H]C([2H])(C#Cc1ccc2occ(C3CCC(=O)NC3=O)c2c1)NC(=O)c1ccc(-c2ncc3c(n2)CCCN3c2cc(C3CCOCC3)cc3c2cc(C)c(=O)n3C)cn1 (stereo not shown) [Example B117, 5-(5-(1,3-dimethyl-2-oxo-7-(tetrahydro-2H-pyran-4-yl)-1,2-dihydroquinolin-5-yl)-5,6,7,8-tetrahydropyrido[3,2-d]pyrimidin-2-yl)-N-(3-(3-(2,6-dioxopiperidin-3-yl)benzofuran-5-yl)prop-2-yn-1-yl-1,1-d2)picolinamide]	> 80	1 to 9.9	100 to 999	< 20
CC(C)c1cc(C2CC(C)(C)Oc3cc(-c4ccc(C(=O)NCC#Cc5ccc6occ(C7CCC(=O)NC7=O)c6c5)nc4)ncc32)cc2c1n(C)c(=O)n2C (stereo not shown) [Example A83, N-(3-(3-(2,6-dioxo-piperidin-3-yl)benzofuran-5-yl)prop-2-yn-1-yl)-5-(4-(7-isopropyl-1,3-dimethyl-2-oxo-2,3-dihydro-1H-benzo [d]imidazol-5-yl)-2,2-dimethyl-3,4-dihydro-2H-pyrano[3,2-c]pyridin-7-yl) picolinamide]	> 80	1 to 9.9	> 1000	< 20
Cc1cc2c(-c3cccc4cc(-c5ccc(C(=O)NCC#Cc6ccc7occ(C8CCC(=O)NC8=O)c7c6)nc5)ncc34)nc(C(C)C)cc2n(C)c1=O (stereo not shown) [Example B102, N-(3-(3-(2,6-dioxopiperidin-3-yl)benzofuran-5-yl)prop-2-yn-1-yl)-5-(8-(7-isopropyl-1,3-dimethyl-2-oxo-1,2-dihydro-1,6-naphthyridin-5-yl)isoquinolin-3-yl)picolinamide]	> 80	1 to 9.9	> 1000	< 20
Cn1c(=O)n(C)c2c(N3CCC(O)CC3)nc(-c3cccc4cc(-c5ccc(C(=O)NCC#Cc6ccc7occ(C8CCC(=O)NC8=O)c7c6)nc5)ncc34)cc21 (stereo not shown) [Example A124, N-(3-(3-(2,6-dioxo-piperidin-3-yl)benzofuran-5-yl)prop-2-yn-1-yl)-5-(8-(4-(4-hydroxypiperidin-1-yl)-1,3-dimethyl-2-oxo-2,3-dihydro-1H-imidazo[4,5-c]pyridin-6-yl)isoquinolin-3-yl)picolinamide]	> 80	< 1	> 1000	< 20
Cc1cc(-c2ncc3c(n2)CCCN3c2nc(N3CC4CCC(C3)O4)cc3c2cc(C)c(=O)n3C)cnc1C(=O)NCC#Cc1ccc2occ(C3CCC(=O)NC3=O)c2c1 (stereo not shown) [Example B26, 5-(5-(7-(8-oxa-3-azabicyclo[3.2.1]octan-3-yl)-1,3-dimethyl-2-oxo-1,2-dihydro-1,6-naphthyridin-5-yl)-5,6,7,8-tetrahydropyrido [3,2-d]pyrimidin-2-yl)-N-(3-(3-(2,6-dioxopiperidin-3-yl)benzofuran-5-yl)prop-2-yn-1-yl)-3-methylpicolinamide]	> 80	1 to 9.9	> 1000	< 20

From patent publication US20250114345A1, “COMPOUNDS AND COMPOSITIONS AS CBP/P300 DEGRADERS AND USES THEREOF” (Oncopia Therapeutics, Inc. d/b/a/ SK Life Science Labs, priority 2023, published 2025)
